According to the NIST ThermoML archive (doi:10.1016/j.jct.2013.09.035):
Numbers after ± are expanded uncertainties.

Settings: Liquid, Vibrating tube method

CCOC(F)(C(F)(F)C(F)(F)C(F)(F)F)C(F)(C(F)(F)F)C(F)(F)F (centres undefined) [2-trifluoromethyl-3-ethoxydodecafluorohexane]
Settings	mass density [kg/m3]
283.48 K, 60000 kPa	1751.01 ± 2.2
283.49 K, 3000 kPa	1658.1 ± 0.57
283.49 K, 50000 kPa	1737.96 ± 1.9
283.49 K, 70000 kPa	1762.23 ± 2.5
283.5 K, 5000 kPa	1662.38 ± 0.61
283.5 K, 10000 kPa	1672.98 ± 0.72
283.5 K, 30000 kPa	1709.09 ± 1.3
283.5 K, 40000 kPa	1724.44 ± 1.6
283.5 K, 80000 kPa	1773.1 ± 2.9
283.5 K, 90000 kPa	1783.39 ± 3.2
283.51 K, 100 kPa	1652.11 ± 0.52
283.51 K, 1000 kPa	1653.72 ± 0.54
283.51 K, 15000 kPa	1682.71 ± 0.84
283.51 K, 20000 kPa	1691.9 ± 0.98
283.51 K, 25000 kPa	1701.13 ± 1.1
283.52 K, 100000 kPa	1793.19 ± 3.6
293.04 K, 40000 kPa	1708.75 ± 1.6
293.04 K, 50000 kPa	1723.04 ± 1.9
293.04 K, 70000 kPa	1748.33 ± 2.5
293.04 K, 90000 kPa	1770.03 ± 3.2
293.04 K, 100000 kPa	1780.11 ± 3.5
293.05 K, 100 kPa	1631.62 ± 0.52
293.05 K, 1000 kPa	1633.93 ± 0.54
293.05 K, 3000 kPa	1638.93 ± 0.57
293.05 K, 5000 kPa	1643.69 ± 0.61
293.05 K, 10000 kPa	1654.94 ± 0.7
293.05 K, 15000 kPa	1665.37 ± 0.82
293.05 K, 20000 kPa	1675.05 ± 0.96
293.05 K, 25000 kPa	1684.16 ± 1.1
293.05 K, 30000 kPa	1692.79 ± 1.2
293.05 K, 60000 kPa	1736.39 ± 2.2
293.05 K, 80000 kPa	1759.65 ± 2.8
302.88 K, 100 kPa	1610.41 ± 0.52
302.88 K, 1000 kPa	1612.92 ± 0.54
302.88 K, 3000 kPa	1618.33 ± 0.57
302.88 K, 10000 kPa	1635.7 ± 0.7
302.88 K, 60000 kPa	1721.46 ± 2.1
302.89 K, 5000 kPa	1623.52 ± 0.6
302.89 K, 15000 kPa	1646.85 ± 0.8
302.89 K, 20000 kPa	1657.18 ± 0.94
302.89 K, 25000 kPa	1666.89 ± 1.1
302.89 K, 30000 kPa	1676.01 ± 1.2
302.89 K, 40000 kPa	1692.64 ± 1.5
302.89 K, 50000 kPa	1707.74 ± 1.8
302.89 K, 70000 kPa	1733.98 ± 2.5
302.89 K, 80000 kPa	1745.75 ± 2.8
302.89 K, 90000 kPa	1756.68 ± 3.1
302.89 K, 100000 kPa	1767.03 ± 3.5
313.15 K, 90000 kPa	1744.34 ± 3.1
313.16 K, 3000 kPa	1598.14 ± 0.57
313.16 K, 15000 kPa	1628.94 ± 0.79
313.16 K, 20000 kPa	1639.8 ± 0.92
313.16 K, 30000 kPa	1659.7 ± 1.2
313.16 K, 40000 kPa	1677.38 ± 1.5
313.16 K, 60000 kPa	1707.63 ± 2.1
313.17 K, 100 kPa	1589.56 ± 0.53
313.17 K, 1000 kPa	1592.21 ± 0.54
313.17 K, 10000 kPa	1616.81 ± 0.68
313.17 K, 25000 kPa	1650.1 ± 1.1
313.17 K, 50000 kPa	1693.17 ± 1.8
313.17 K, 70010 kPa	1720.7 ± 2.4
313.17 K, 80000 kPa	1733 ± 2.7
313.17 K, 100000 kPa	1755.06 ± 3.4
313.18 K, 5000 kPa	1603.66 ± 0.6
323.04 K, 5000 kPa	1585.04 ± 0.6
323.04 K, 10000 kPa	1599.21 ± 0.68
323.04 K, 15000 kPa	1612.03 ± 0.77
323.04 K, 20000 kPa	1623.79 ± 0.9
323.04 K, 25000 kPa	1634.67 ± 1
323.04 K, 30000 kPa	1644.88 ± 1.2
323.04 K, 40000 kPa	1663.35 ± 1.5
323.04 K, 50000 kPa	1679.91 ± 1.8
323.04 K, 60000 kPa	1694.93 ± 2.1
323.04 K, 70000 kPa	1708.52 ± 2.4
323.04 K, 80000 kPa	1721.13 ± 2.7
323.04 K, 90000 kPa	1732.9 ± 3
323.04 K, 100000 kPa	1743.96 ± 3.4
323.05 K, 1000 kPa	1572.54 ± 0.54
323.05 K, 3000 kPa	1578.97 ± 0.57
323.06 K, 100 kPa	1569.59 ± 0.57
332.94 K, 15000 kPa	1591.88 ± 0.76
332.94 K, 20000 kPa	1604.4 ± 0.87
332.94 K, 25000 kPa	1615.92 ± 1
332.94 K, 30000 kPa	1626.63 ± 1.1
332.94 K, 40000 kPa	1646.05 ± 1.4
332.94 K, 50000 kPa	1663.31 ± 1.7
332.94 K, 60000 kPa	1678.97 ± 2
332.94 K, 70000 kPa	1693.19 ± 2.3
332.94 K, 80000 kPa	1706.27 ± 2.6
332.94 K, 90000 kPa	1718.48 ± 3
332.94 K, 100000 kPa	1729.78 ± 3.3
332.95 K, 3000 kPa	1556.26 ± 0.57
332.95 K, 5000 kPa	1562.89 ± 0.59
332.95 K, 10000 kPa	1578.13 ± 0.67
332.96 K, 1000 kPa	1549.29 ± 0.55
332.97 K, 100 kPa	1546.01 ± 0.53
342.55 K, 100 kPa	1525.56 ± 0.56
342.56 K, 1000 kPa	1529.11 ± 0.56
342.56 K, 3000 kPa	1536.69 ± 0.58
342.56 K, 5000 kPa	1543.86 ± 0.59
342.56 K, 10000 kPa	1560.31 ± 0.66
342.57 K, 15000 kPa	1574.95 ± 0.75
342.57 K, 20000 kPa	1588.2 ± 0.85
342.57 K, 25000 kPa	1600.4 ± 0.98
342.57 K, 30000 kPa	1611.69 ± 1.1
342.57 K, 40000 kPa	1632.02 ± 1.4
342.57 K, 50000 kPa	1650.06 ± 1.7
342.57 K, 60000 kPa	1666.29 ± 2
342.57 K, 70000 kPa	1680.92 ± 2.3
342.57 K, 80000 kPa	1694.39 ± 2.6
342.57 K, 90000 kPa	1706.96 ± 2.9
342.57 K, 100000 kPa	1718.69 ± 3.2
352.56 K, 100 kPa	1503.72 ± 0.59
352.56 K, 1000 kPa	1507.64 ± 0.58
352.57 K, 3000 kPa	1515.99 ± 0.59
352.57 K, 5000 kPa	1523.8 ± 0.59
352.57 K, 10000 kPa	1541.62 ± 0.66
352.57 K, 15000 kPa	1557.31 ± 0.74
352.57 K, 20000 kPa	1571.45 ± 0.83
352.57 K, 25000 kPa	1584.35 ± 0.96
352.57 K, 30000 kPa	1596.28 ± 1.1
352.57 K, 40000 kPa	1617.61 ± 1.4
352.57 K, 50000 kPa	1636.45 ± 1.6
352.57 K, 70000 kPa	1668.54 ± 2.3
352.58 K, 60000 kPa	1653.3 ± 1.9
352.58 K, 80000 kPa	1682.53 ± 2.6
352.58 K, 90000 kPa	1695.44 ± 2.9
352.58 K, 100000 kPa	1707.52 ± 3.2
362.59 K, 5000 kPa	1503.25 ± 0.61
362.59 K, 10000 kPa	1522.52 ± 0.66
362.59 K, 15000 kPa	1539.4 ± 0.73
362.6 K, 100 kPa	1481.19 ± 0.59
362.6 K, 1000 kPa	1485.52 ± 0.6
362.6 K, 3000 kPa	1494.68 ± 0.6
362.6 K, 20000 kPa	1554.46 ± 0.82
362.6 K, 25000 kPa	1568.1 ± 0.94
362.6 K, 30000 kPa	1580.67 ± 1.1
362.6 K, 40000 kPa	1603.06 ± 1.3
362.6 K, 50000 kPa	1622.7 ± 1.6
362.6 K, 60000 kPa	1640.27 ± 1.9
362.6 K, 70000 kPa	1656.03 ± 2.2
362.6 K, 80000 kPa	1670.49 ± 2.5
362.6 K, 90000 kPa	1683.83 ± 2.8
362.6 K, 100000 kPa	1696.22 ± 3.1
